Legend:
Assay in all cases: relative viability (nuclei count vs DMSO), 5 days (fraction); higher = more cells survive
Lestaurtinib + OSI-027 = compound: C[C@]12O[C@H](C[C@]1(O)CO)n1c3ccccc3c3c4c(c5c6ccccc6n2c5c31)CNC4=O [Lestaurtinib] + COc1cccc2cc(-c3nc([C@H]4CC[C@H](C(=O)O)CC4)n4ncnc(N)c34)[nH]c12 [OSI-027] (partner 0.5 µM)
In short: (§1)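 Five library-drug doses in √10 steps were combined with a fixed anchor-drug dose, or a single drug was given alone, by pin tool to lung cancer cell lines in 1536-well plates the day after seeding. Nuclei were stained and counted after 5 days. Relative viability is the nuclei count in treated wells over that in vehicle wells, taken as the median of duplicate plates.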

TPCA-1 + OSI-027 = compound: C1=CC(=CC=C1C2=CC(=C(S2)NC(=O)N)C(=O)N)F [TPCA-1] + COc1cccc2cc(-c3nc([C@H]4CC[C@H](C(=O)O)CC4)n4ncnc(N)c34)[nH]c12 [OSI-027] (partner 0.5 µM)
In short: as §1

[1] = compound: C1/C(=C\C2=CC=CS2)/C(=O)/C(=C/C3=CC=CS3)/C1 + O=C(CCCCCCC(=O)Nc1ccccc1)NO [Vorinostat] (partner 1 µM)
In short: as §1

TPCA-1 + Dasatinib = compound: C1=CC(=CC=C1C2=CC(=C(S2)NC(=O)N)C(=O)N)F [TPCA-1] + Cc1nc(Nc2ncc(C(=O)Nc3c(C)cccc3Cl)s2)cc(N2CCN(CCO)CC2)n1 [Dasatinib] (partner 0.075 µM)
In short: as §1

UMC-11 was tested, and the relative viability (Lestaurtinib + OSI-027; first compound 0.005 µM) was 0.48, the relative viability (Lestaurtinib + OSI-027; first compound 0.01581 µM) was 0.385 and the relative viability (Lestaurtinib + OSI-027; first compound 0.05 µM) was 0.293. The relative viability (Lestaurtinib + OSI-027; first compound 0.1581 µM) was 0.283, the relative viability (Lestaurtinib + OSI-027; first compound 0.5 µM) was 0.177 and the relative viability (TPCA-1 + OSI-027; first compound 0.04 µM) was 0.536. The relative viability (TPCA-1 + OSI-027; first compound 0.1265 µM) was 0.337, the relative viability (TPCA-1 + OSI-027; first compound 0.4 µM) was 0.466 and the relative viability (TPCA-1 + OSI-027; first compound 1.265 µM) was 0.4. The relative viability (TPCA-1 + OSI-027; first compound 4 µM) was 0.234, the relative viability ([1]; first compound 0.2 µM) was 0.361 and the relative viability ([1]; first compound 0.6325 µM) was 0.36. It also gave a relative viability ([1]; first compound 2 µM) of 0.43, a relative viability ([1]; first compound 6.325 µM) of 0.26 and a relative viability ([1]; first compound 20 µM) of 0.394. The relative viability (TPCA-1 + Dasatinib; first compound 0.04 µM) was 0.494, the relative viability (TPCA-1 + Dasatinib; first compound 0.1265 µM) was 0.443 and the relative viability (TPCA-1 + Dasatinib; first compound 0.4 µM) was 0.494. It also gave a relative viability (TPCA-1 + Dasatinib; first compound 1.265 µM) of 0.457 and a relative viability (TPCA-1 + Dasatinib; first compound 4 µM) of 0.222.

From the supplement of paper PMC10307832
